Test results taken from patent publication US20230330058A1, “SENOLYTIC COMPOUNDS AND COMPOSITIONS” (NUCHIDO LIMITED, priority 2020, published 2023).
“Also recorded” adds a separate entry of the source. Where a name gives a salt, the structure may show the parent alone.

Assays:
[1] = system: senescent Human Dermal Fibroblasts (HDFs) versus non-senescent ('young') HDFs; assay: Senescence-specific assay: co-culture of labelled senescent and non-senescent cells, automated counting before and after 72 h incubation; format: cell-based; conditions: for selective senolytic activity: single agent, killing senescent cells over non-senescent cells; for senolytic activity in galactose media: glycolysis suppressed (FIGS. 5, 13); for increase of the senolytic effect of navitoclax: uncoupler together with navitoclax, efficacy at lower navitoclax concentrations (FIGS. 11, 12; senescent and proliferating cells); for selective senolytic activity at concentrations reached in humans: concentrations already known to be reached safely in humans, achievable blood plasma concentrations (FIG. 3)
Protocol: We developed a senescence-specific assay, employing automated counting of differentially labelled senescent and non-senescent cells in co-culture, before and after 72h incubation with each molecule or molecule combination.
Human Dermal Fibroblasts (HDFs) expressing pSLIEW (Green), or mCherry (Red) are used in the assay. The cells expressing pSLIEW (Green) are subjected to 20 Gy X-irradiation to induce senescence.
The test molecule is added to the co-culture, and the number of green and red cells are counted before and after 72 h incubation. A selective senolytic would be expected to diminish the proportion of green-expressing senescent cells, while leaving the number of red-expressing young cells unchanged or increased due to replication during the incubation period.
The experiments were carried out in 96-well plates, and the cells were imaged using fluorescent microscopy. The images were analysed with ICY software for automated cell counting, and both numbers of labelled cells and their other visible characteristics such as size were recorded.

aging in animals = conditions: cited from earlier work
senescent cells = conditions: cited from earlier work
platelets = conditions: originally intended as anti-cancer drugs; cited from earlier work

Row | SMILES | selective senolytic activity [1] | further results
1 | O=c1cc(-c2ccc(O)cc2)oc2cc(O)cc(O)c12 [apigenin] | showed selective senolytic activity | –
2 | NC(=O)c1cccnc1 [nicotinamide] | showed selective senolytic activity | –
3 | CN1C(=O)C(C(=O)Nc2nncs2)c2cc3occc3cc21 (stereo not drawn) [BML-288] | showed selective senolytic activity | –
4 | CN(C)C(=N)N=C(N)N [metformin] | – | senolytic activity in galactose media [1]: senolytic at physiological doses if glycolysis is suppressed; also recorded: senolytic when glycolysis is suppressed; also recorded: displays senolytic activity; effect on aging in animals (aging in animals): can delay aging in animals
5 | O=C(O[C@@H]1Cc2c(O)cc(O)cc2O[C@@H]1c1cc(O)c(O)c(O)c1)c1cc(O)c(O)c(O)c1 [EGCG, epigallocatechin gallate] | showed selective senolytic activity | –
6 | N#CC(C#N)=NNc1cccc(Cl)c1 [CCCP, Carbonyl cyanide m-chlorophenyl hydrazone] | – | increase of the senolytic effect of navitoclax [1]: increases the senolytic effect of navitoclax
7 | N#CC(C#N)=NNc1ccc(OC(F)(F)F)cc1 [FCCP, Carbonyl cyanide-p-trifluoromethoxyphenylhydrazone] | selective senolytic activity | increase of the senolytic effect of navitoclax [1]: increases the senolytic effect of navitoclax
8 | O=C(O)CCCCC1CCSS1 (stereo not drawn) [alpha lipoic acid] | showed selective senolytic activity | –
9 | OCCN1CCN(CCCN2c3ccccc3Sc3ccc(C(F)(F)F)cc32)CC1 [fluphenazine dihydrochloride] | – | selective senolytic activity ([1]; dihydrochloride): showed selective senolytic activity; selective senolytic activity ([1]; listed as fluphenazine hydrochloride, dihydrochloride): selective senolytic activity
10 | C[C@@H]1CC[C@H]2[C@@H](C)C(=O)O[C@@H]3O[C@@]4(C)CC[C@@H]1[C@]32OO4 [Artemisinin] | showed selective senolytic activity | –
11 | C=CCc1ccc(O)c(-c2cc(CC=C)ccc2O)c1 [magnolol] | showed selective senolytic activity | –
12 | CC(C)(C)c1cc(O)c(C(C)(C)C)cc1O [BTBHQ, 2,5-di-tert-butylhydroquinone] | showed selective senolytic activity | –
13 | CN1CCc2ccccc2Cc2[nH]c3ccccc3c2CC1 [LE300, 6,7,8,9,14,15-hexahydro-7-methyl-5H-indolo[3,2-f][3]benzazecine] | showed selective senolytic activity | –
14 | Oc1ccc(C=Cc2cc(O)cc(O)c2)cc1 [resveratrol] | showed selective senolytic activity | –
15 | CC(=O)Oc1ccccc1C(=O)Nc1ncc([N+](=O)[O-])s1 [nitazoxanide] | – | senolytic activity in galactose media [1]: selective senolytic activity
16 | O=C(Nc1ccc([N+](=O)[O-])cc1Cl)c1cc(Cl)ccc1O [niclosamide] | showed selective senolytic activity | selective senolytic activity at concentrations reached in humans [1]: selective senolytic activity; selective senolytic activity at concentrations reached in humans ([1]; listed as Niclosamide): selectively senolytic at concentrations that are already known to be reached safely in humans
17 | CC1(C)CCC(c2ccc(Cl)cc2)=C(CN2CCN(c3ccc(C(=O)NS(=O)(=O)c4ccc(N[C@H](CCN5CCOCC5)CSc5ccccc5)c(S(=O)(=O)C(F)(F)F)c4)cc3)CC2)C1 [navitoclax] | – | senolytic agent in animal studies (senescent cells): inducing apoptosis in senescent cells, but less in non-senescent cells; side-effect profile (platelets): thrombocytopaenia
18 | O=[N+]([O-])c1ccc(O)c([N+](=O)[O-])c1 [DNP, 2,4-Dinitrophenol] | selective senolytic activity | –
19 | Cc1c(-c2ccc(N3CCc4cccc(C(=O)Nc5nc6ccccc6s5)c4C3)nc2C(=O)O)cnn1CC12CC3CC(CC(C3)C1)C2 [A-1331852, 3-(1-(((3r,5r,7r)-adamantan-1-yl)methyl)-5-methyl-1H-pyrazol-4-yl)-6-(8-(benzo[d]thiazol-2-ylcarbamoyl)-3,4-dihydroisoquinolin-2(1H)-yl)picolinic acid] | – | side-effect profile (platelets): thrombocytopaenia
20 | C=CCc1ccc(O)c(-c2ccc(O)c(CC=C)c2)c1 [honokiol] | showed selective senolytic activity | –
21 | O=c1c(O)c(-c2ccc(O)c(O)c2)oc2cc(O)cc(O)c12 [quercetin] | showed selective senolytic activity | –
